Data from ChEMBL document CHEMBL3399969, “Multifunctional scutellarin-rivastigmine hybrids with cholinergic, antioxidant, biometal chelating and neuroprotective properties for the treatment of Alzheimer's disease” (Bioorg Med Chem, 2015).

What was measured:
[1] = Antioxidant activity assessed as trolox equivalent of […]-induced radical scavenging activity by ORAC-FL method; format: physicochemical
[2] = Inhibition of rat serum BuChE using butyrylthiocholine iodide as substrate after 15 mins by Ellman method; format: cell-free
Rattus norvegicus = species on record: Rattus norvegicus; test: Selectivity index, ratio of IC50 for rat serum BuChE to IC50 for rat cortex AChE; format: cell-free
Acetylcholinesterase = target: T1, Acetylcholinesterase (Rattus norvegicus, UniProt P37136); test: Inhibition of rat cortex AChE using acetylthiocholine iodide as substrate after 15 mins by Ellman method
T1 sequence (P37136 whole entry): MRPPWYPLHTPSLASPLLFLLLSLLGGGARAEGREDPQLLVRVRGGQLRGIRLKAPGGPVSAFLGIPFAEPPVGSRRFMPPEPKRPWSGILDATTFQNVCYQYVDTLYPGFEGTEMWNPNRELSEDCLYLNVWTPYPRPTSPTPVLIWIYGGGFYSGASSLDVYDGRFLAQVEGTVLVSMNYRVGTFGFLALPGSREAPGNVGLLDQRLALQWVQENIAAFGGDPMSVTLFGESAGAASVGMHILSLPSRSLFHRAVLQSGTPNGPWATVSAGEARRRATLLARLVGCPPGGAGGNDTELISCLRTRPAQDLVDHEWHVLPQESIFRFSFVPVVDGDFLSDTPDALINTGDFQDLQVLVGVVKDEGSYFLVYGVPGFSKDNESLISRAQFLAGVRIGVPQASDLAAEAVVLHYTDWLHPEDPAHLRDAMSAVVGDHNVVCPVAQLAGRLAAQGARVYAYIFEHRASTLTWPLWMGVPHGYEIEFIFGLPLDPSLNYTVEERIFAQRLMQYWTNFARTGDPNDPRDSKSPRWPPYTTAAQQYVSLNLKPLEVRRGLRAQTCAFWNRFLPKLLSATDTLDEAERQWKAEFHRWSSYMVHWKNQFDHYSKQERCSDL

PC-12 = test: Neuroprotective effect against H2O2-induced rat PC12 cell injury assessed as cell viability at 10 uM incubated for 2 hrs prior to H2O2 challenge measured after 24 hrs by MTT assay (reference value: 57.6%); format: functional; conditions: read-out: Activity
[3] = Metal chelating activity of the compound assessed as Al3+ complex formation after 30 mins by UV-Vis spectrometry; format: physicochemical; conditions: 0.5 h
[4] = Metal chelating activity of the compound assessed as Fe2+ complex formation after 30 mins by UV-Vis spectrometry; format: physicochemical; conditions: 0.5 h
[5] = Metal chelating activity of the compound assessed as Zn2+ complex formation after 30 mins by UV-Vis spectrometry; format: physicochemical; conditions: 0.5 h
[6] = Metal chelating activity of the compound assessed as Cu2+ complex formation after 30 mins by UV-Vis spectrometry; format: physicochemical; conditions: 0.5 h

Structure (SMILES) | Activity [1] | IC50 [2] [µM] | Ratio IC50 (Rattus norvegicus) | IC50 (Acetylcholinesterase) [µM] | viability at 10 µM (PC-12) [%] | Activity [3] | Activity [4] | Activity [5] | Activity [6]
COc1cc2oc(-c3ccc(OC(=O)N4CCCCC4)cc3)cc(=O)c2c(OC)c1OC | 0.31 | 15.3 | 0.7 | 21.2 | 65.2 | – | – | – | –
COc1cc2oc(-c3ccc(OC(=O)N(C)C)cc3)cc(=O)c2c(OC)c1OC | 0.32 | 7.3 | 0.9 | 8.24 | 73.5 | – | – | – | –
CCN(C)C(=O)Oc1cccc(-c2cc(=O)c3c(O)c(OC)c(OC)cc3o2)c1 | 0.9 | > 100 | > 6.8 | 14.8 | – | – | – | – | –
COc1cc2oc(-c3ccc(OC(=O)N4CCCCC4)cc3)cc(=O)c2c(O)c1OC | 1.1 | > 100 | > 5.6 | 17.8 | 79.6 | – | – | – | –
COc1cc2oc(-c3ccc(OC(=O)N(C(C)C)C(C)C)cc3)cc(=O)c2c(OC)c1OC | 0.33 | 38.2 | 2.8 | 13.7 | – | – | – | – | –
COc1cc2oc(-c3cccc(OC(=O)N(C(C)C)C(C)C)c3)cc(=O)c2c(OC)c1OC | 0.3 | > 100 | > 1.1 | 87.5 | – | – | – | – | –
CCN(CC)C(=O)Oc1ccc(-c2cc(=O)c3c(OC)c(OC)c(OC)cc3o2)cc1 | 0.36 | 8.2 | 24.1 | 0.34 | 70.3 | Active | Active | Active | Active
COc1cc2oc(-c3ccc(O)cc3)cc(=O)c2c(OC)c1OC | 2.6 | > 100 | – | > 100 | – | – | – | – | –
COc1cc2oc(-c3cccc(OC(=O)N4CCN(C)CC4)c3)cc(=O)c2c(OC)c1OC | 0.36 | > 100 | > 3.2 | 31.2 | 82.1 | – | – | – | –
CCN(C)C(=O)Oc1ccc(-c2cc(=O)c3c(OC)c(OC)c(OC)cc3o2)cc1 | 0.34 | 6.2 | 4 | 1.54 | 75.1 | – | – | – | –
COc1cc2oc(-c3ccc(OC(=O)N(C(C)C)C(C)C)cc3)cc(=O)c2c(O)c1OC | 1 | > 100 | – | > 100 | 68.7 | – | – | – | –
COc1cc2oc(-c3ccc(O)cc3)cc(=O)c2c(O)c1OC [CIRSIMARITIN] | 5.4 | > 100 | – | > 100 | – | – | – | – | –
COc1cc2oc(-c3cccc(OC(=O)N(C(C)C)C(C)C)c3)cc(=O)c2c(O)c1OC | 1.1 | > 100 | > 1 | 96.5 | – | – | – | – | –
COc1cc2oc(-c3ccc(OC(=O)N4CCN(Cc5ccccc5)CC4)cc3)cc(=O)c2c(OC)c1OC | 0.32 | 37.2 | 35.8 | 1.04 | 81.9 | – | – | – | –
COc1cc2oc(-c3ccc(OC(=O)N4CCN(Cc5ccccc5)CC4)cc3)cc(=O)c2c(O)c1OC | 0.9 | > 100 | > 10.8 | 9.25 | 84.5 | – | – | – | –
COc1cc2oc(-c3ccc(OC(=O)N4CCN(C)CC4)cc3)cc(=O)c2c(O)c1OC | 1 | > 100 | > 20 | 5 | – | – | – | – | –
CCN(C)C(=O)Oc1cccc(-c2cc(=O)c3c(OC)c(OC)c(OC)cc3o2)c1 | 0.32 | 38.1 | 5.2 | 7.37 | 70.8 | – | – | – | –
COc1cc2oc(-c3cccc(OC(=O)N4CCOCC4)c3)cc(=O)c2c(OC)c1OC | 0.29 | > 100 | – | > 100 | – | – | – | – | –
